Test results taken from patent US20230293628A1, “MEANS AND METHODS FOR TREATING BACTERIAL INFECTIONS” (priority 2016, published 2023).
Values after ≈ are worked out from the molar mass of the structure shown. Where two headings read alike, the source gives them in different places. Where no end group is shown, it is not given here.

Tests used:
[1] = tested on: Escherichia coli ESBL (CUN E20)
[2] = tested on: TLR2/6-activated keratinocytes; assay: FSL-1 (TLR2/6)-activated keratinocytes: IL-8 ELISA, Western Blot, real-time PCR; type: cell-based, human; details: FSL-1 stimulation, 10:1 weight ratio
Description: Thus, the effect of Pep19-2.5 and Pep19-4LF on the toxin (pathogenicity factor) FSL-1 (fibroblast-stimulating lipopeptide), a TLR-2/6 activating compound, was checked.
(§1) The potential of Peptide 19-2.5 and the structurally related compound Peptide 19-4LF has been investigated for their therapeutic application in bacterial skin infections. Primary human keratinocytes responded to TLR2 (FSL-1) but not TLR4 (LPS) activation by increased IL-8 production which was determined with ELISA. […] To detect phosphorylation of the intracellular proteins Western Blot was performed. Gene expression was evaluated by quantitative real-time PCR. […] In addition to acute inflammation, bacterial infections often result in impaired wound healing. Since re-epithelialization is a critical step in wound repair, we tested whether Peptide 19-2.5 affects keratinocyte migration.

[3] = tested on: M. tuberculosis-induced TNF formation of human peripheral blood mononuclear cells; assay: M. tuberculosis supernatant-induced TNFα formation in human mononuclear cells (ELISA); type: cell-based; details: for Inhibition of M. tuberculosis-induced TNF formation (in words): FIG. 5
[4] = tested on: monocyte-derived dendritic cells (MoDCs); assay: LPS-stimulated monocyte-derived dendritic cells: maturation, migration, IL-6; type: cell-based
Description: In monocyte-derived dendritic cells (MoDCs), Pep19-2.5 inhibited LPS-mediated upregulation of the maturation marker CD83 and the co-stimulatory molecule CD80 at a peptide:LPS weight ratio of 1000:1.
as §1

[5] = tested on: open wound with wound infections (Staphylococcus aureus, Parvimonas micra, β-hemolysing Streptococcus, Pseudomonas aeruginosa); assay: Healing attempt, infected open wound of a patient, topical salve; type: in vivo; details: for Effect on wound: topical
Description: A patient had—due to a cured tumor in the back—an open wound (see picture at t=0). […] Therefore, a conservative wound treatment was initiated. The wound's localization required the involvement of an ambulant nursing service who took over the daily care. Nevertheless, in sporadic intervals, wound infections occurred which inhibited the healing process. […] Over 6 years, all therapeutical approaches with different antibiotics and topically applied salve formulations failed. In November 2014 the patient was informed about the possibility of a, healing attempt′, to which they agreed. […] This therapeutically effect can be explained only from the use of the Aspidasept® salve, since all other parameters were not changed. The wound is now completely closed.

keratinocyte migration = assay: Scratch assay, keratinocyte migration; type: cell-based
Description: as §1

[6] = tested on: Pseudomonas aeruginosa PS4; assay: CDC Biofilm Reactor, inhibition of biofilm formation; type: cell-based; details: with and without levofloxacin, 24 hours treatment, FIG. 8
Description: The data shown in FIG. 8 were obtained in experiments carried out using the Center for Disease Control (CDC) Biofilm Reactor (CBR). In this case, clinical strain Pseudomonas aeruginosa PS4 was incubated in TSB under continuous shaking for 24 hours, followed by additional 24 hours growth with a flow of diluted TSB. Samples received treatments during another 24 hours dissolved at Phosphate Buffer at 37° C. Biofilms were scraped and serially diluted prior to plating and counting. For confocal microscopy, Biofilms were stained using Live/Death BacLight (Life technologies, Carlsbad, California, USA).

[7] = tested on: Pseudomonas aeruginosa biofilm; assay: Inactivation of biofilm from Pseudomonas aeruginosa with GFP-labelled bacteria; type: cell-based; details: short-time treatment (1 h), FIG. 2
Description: FIG. 2: Inactivation of a biofilm from Pseudomonas aeruginosa with GFP-labelled bacteria (GFP: Green-Fluorescent Protein). Living bacteria: white, inactivated bacteria: dark.
The micrographics shown that only a small fraction of the surface was covered by live bacteria forming a biofilm after 1 h (B) compared with the untreated one (A).

Compound | MIC ([1]; individual agents, Mueller-Hinton medium) | MIC ([1]; ESBL (CUN E20)) | IL-8 release / IL-8 inducing activity of FSL-1 [2] | Inhibition of TNFα formation ([3]; 10 μg/ml peptide) | Inhibition of M. tuberculosis-induced TNF formation (in words) [3] | Inhibition of M. tuberculosis-induced TNF formation (in words) ([3]; listed as Pep19-2.5) | LPS-induced migration of MoDCs and CCR7 gene expression ([4]; FIG. 6) | LPS-mediated upregulation of maturation marker CD83 and co-stimulatory molecule CD80 ([4]; peptide:LPS weight ratio of 1000:1) | Effect on wound ([5]; 0.1% in salve (DAC-base cream)) | Reduction of the diameter of the wound ([5]; 1% in salve, after 2 months) | Wound healing ([5]; 1% in salve, after 6 months) | Effect on wound ([5]; 1% in salve) | Concentration promoting cell migration and accelerating artificial wound closure (as low as) (keratinocyte migration) | Potency in promoting cell migration relative to TGF-β (keratinocyte migration) | Inhibition of biofilm formation [6] | Inactivation of biofilm bacteria [7]
CO/N=C(\C(=O)N[C@@H]1C(=O)N2C(C(=O)O)=C(CSc3nc(=O)c(O)nn3C)CS[C@H]12)c1csc(N)n1 [Ceftriaxon, Ceftriaxone, reference compound] | 16 µg/mL (≈ 28.9 µM) | – | – | – | – | – | – | – | – | – | – | – | – | – | – | –
N=C(N)NCCC[C@H](NC(=O)[C@H](Cc1ccc(O)cc1)NC(=O)[C@H](CCCCN)NC(=O)[C@H](CCCCN)NC(=O)[C@H](CS)NC(=O)CN)C(=O)N[C@@H](CCCNC(=N)N)C(=O)N[C@@H](Cc1ccccc1)C(=O)N[C@@H](CCCNC(=N)N)C(=O)N[C@@H](Cc1c[nH]c2ccccc12)C(=O)N[C@@H](CCCCN)C(=O)N[C@@H](Cc1ccccc1)C(=O)N[C@@H](CCCCN)C(=O)NCC(=O)N[C@@H](CCCCN)C(=O)N[C@@H](Cc1ccccc1)C(=O)N[C@@H](Cc1c[nH]c2ccccc12)C(=O)N[C@@H](Cc1ccccc1)C(=O)N[C@@H](Cc1c[nH]c2ccccc12)C(=O)NCC(=O)O [Peptide 19-2.5] | – | 128 µg/mL (≈ 47.2 µM) | reduce IL-8 release | more than 50% | Does dependent inhibition | strongest anti-TNFα activity | completely blocked | inhibited | no effect | 50% | completely healed | significant effect | 1 ng/mL | equipotent to TGF-β | – | –
GKKYRRFRWKFKGKLFLFG [Peptide 19-4LF, GKKYRRFRWKFKGKLFLFG] | – | 16 µg/mL | reduce IL-8 release | – | – | – | – | – | – | – | – | – | – | – | Inhibition of biofilm formation | most bacteria are inactivated
